Values joined by “and” are separate entries in the source; they are usually repeats but may differ in a detail not shown here. Identical values can stand only once. Counter-ions that a name gives are not always drawn. Like-named read-outs stand apart in the source and are kept apart here.
Key:
[1] = test system: MRSA strains; details: in words, reported; cited from earlier work
[2] = test system: E. faecium ATCC 35667; assay: MIC by agar dilution, E. faecium ATCC 35667; type: cell-based
Experimental: (§1) The compounds of the invention were evaluated against several β-lactamresistant bacteria strains by determining the minimum inhibitory concentration (MIC, μg/ml) of each compound with respect to each strain. The MIC, the lowest concentration of antibiotic which inhibits growth of the test organism, was determined by the agar dilution method.
(§2) To determine the MIC for bacterial isolates, the test compound was incorporated in a series of two-fold dilutions into liquified Mueller-Hinton agar. Upon solidification, a number of different bacterial strains were spot inoculated with a replicating device onto the agar surface. […] The procedures used in these studies have been standardized by the National Committee for Clinical Laboratory Standards (NCCLS), as per the NCCLS publication entitled METHODS FOR DILUTION ANTIMICROBIAL SUSCEPTIBILITY TESTS (1991), which is incorporated herein by reference.
(§3) Aliquots of antimicrobial agents were prepared in phosphate buffered saline (PBS) at pH 7.2. Tween 20 or DMSO was used as a solubilizing vehicle as needed. Standard methods of vortexing, sonicating and gentle heat were used to facilitate solubilizing the test agent. Typically, the concentration of the stock solution was 10× that of the highest drug concentration tested. A 1.28 mg/mL stock solution was used with a subsequent highest working concentration of 128 μg/mL. Serial two-fold dilutions were done through ≤0.25 μg/mL. Each drug level was tested in duplicate. Two-fold drug dilutions were done in sterile 50 mL tubes with a final drug volume of 5 mL. Upon the addition of 45 mL of molten agar, a 10-fold dilution resulted. Two, 25 mL. plates were then poured into 15×150 mm square Petri plates with grids and allowed to harden.
(§4) A control plate with a reference drug, either cefotaxime, vancomycin or imipenem, was used as the positive growth control. Stock concentrations of reference antibiotics were prepared and frozen at -80° C. Upon preparation, the control plates were sealed and stored in the refrigerator for up to 1 week prior to use; however, imipenem control plates had to be prepared just prior to use. All test plates were used within 24 hours of preparation.
(§5) Satisfactory results were obtained where the inoculum contained about 10^4 colony forming units (cfu) ±0.5 logs. Starting with pure cultures of the test isolates on agar plates, a few isolated colonies were transferred to a tube of nutrient broth and allowed to grow 4-6 hours at 35°-36° C. to reach log-phase growth. Dropwise addition of the broth culture to PBS was done to match a 0.5 McFarland turbidity standard equal to 10^8 cfu/mL. This was further diluted ten-fold in PBS to reach a working inoculum concentration of 10^7 cfu/mL. When 1 μL of the working inoculum was applied to the agar surface a concentration of about 10^4 cfu per spot was obtained.
(§6) Disposable sterile 1 μL loops were used to inoculate test plates, with each isolate in a designated grid on the agar plate. An alternate method of inoculation involved the use of a replica plater, a device with 48 steel pins allowing the simultaneous inoculation of multiple isolates. After the spots had dried, the plates were incubated at 35°-36° C. for 16-20 hours. Endpoints were assessed as the minimum inhibitory concentration (MIC) of antimicrobial agent.

[3] = test system: S. aureus Col (Meth^R) (lac^-); assay: MIC by agar dilution, S. aureus Col (Meth^R) (lac^-); type: cell-based; details: agar dilution, S. aureus Col (Meth^R) (lac^-)
Summary of the method: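 Log-phase isolates were spot-inoculated at about 10^4 cfu onto Mueller-Hinton agar carrying duplicate two-fold compound levels, 128 μg/mL to ≤0.25 μg/mL, following NCCLS (1991). Plates were read after 16-20 h at 35°-36° C. The lowest growth-inhibiting concentration gave the MIC (μg/ml).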

[4] = test system: E. faecalis ATCC 29212; assay: MIC by agar dilution, E. faecalis ATCC 29212; type: cell-based
Experimental: as §1, §2, §3, §4, §5, §6

[5] = test system: P. aeruginosa ATCC 27853; assay: MIC by agar dilution, P. aeruginosa ATCC 27853; type: cell-based
Experimental: as §1, §2, §3, §4, §5, §6

[6] = test system: S. aureus ATCC 25923; assay: MIC by agar dilution, S. aureus ATCC 25923; type: cell-based
Experimental: as §1, §2
(§7) Aliquots of antimicrobial agents were prepared in phosphate buffered saline (PBS) at pH 7.2. Tween 20 or DMSO was used as a solubilizing vehicle as needed. Standard methods of vortexing, sonicating and gentle heat were used to facilitate solubilizing the test agent. […]
(§8) Disposable sterile 1 μL loops were used to inoculate test plates, with each isolate in a designated grid on the agar plate. […] Endpoints were assessed as the minimum inhibitory concentration (MIC) of antimicrobial agent.

[7] = test system: S. aureus 76 (Meth^R) (lac^+); assay: MIC by agar dilution, S. aureus 76 (Meth^R) (lac^+); type: cell-based
Experimental: as §1, §2, §3, §4, §5, §6

[8] = test system: E. coli ATCC 25922; assay: MIC by agar dilution, E. coli ATCC 25922; type: cell-based
Experimental: as §1, §2, §3, §4, §5, §6

[9] = test system: S. haemolyticus (Meth^R); assay: MIC by agar dilution, S. haemolyticus (Meth^R); type: cell-based
Experimental: as §1, §2, §3, §4, §5, §6

[10] = test system: S. epidermidis ATCC 31432; assay: MIC by agar dilution, S. epidermidis ATCC 31432; type: cell-based
Experimental: as §1, §2, §7, §8

[11] = test system: S. aureus Col8A (Meth^S) (lac^-); assay: MIC by agar dilution, S. aureus Col8A (Meth^S) (lac^-); type: cell-based; details: agar dilution; S. aureus Col8A (Meth^S) (lac^-)
Experimental: as §1, §2, §3, §4, §5, §6
The novel agents of this invention are notable for their enhanced activity against S. aureus Col and Enterococci (E. faecium and E. faecalis). The S. aureus Col strain is a high-level PBP2a producer, whereas S. aureus Col 8A, its isogenic partner, lacks PBP2a. […] Thus, the compounds of the present invention are effective against PBP2a-producing bacteria.

[12] = test system: S. aureus strain ATCC 13709; assay: Challenge strain MIC; type: cell-based; details: Staphylococcus aureus, ATCC13709; S. aureus ATCC 13709; read-out: Challenge str MIC
Experimental: as §1, §2
reported for challenge with methicillin-susceptible S. aureus

[13] = test system: methicillin-susceptible S. aureus strain ATCC 13709; assay: murine model for lethal bacteremic peritonitis; type: in vivo, female Swiss-Webster mice; details: subcutaneous, 72 h
Summary of the method: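 Female Swiss-Webster mice challenged IP with an LD100 titer of bacteria in 7% hog gastric mucin; groups of 10 treated SC with twofold drug increments (0.01–512 mg/kg) as two equal doses at challenge and 2 h later. Survival followed for 72 h; PD50 (total mg/kg) calculated by probit method.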

Question: With `C[C@@H](O)[C@H]1C(=O)N2C(C(=O)O)=C(SCCN=CN)C[C@H]12` [imipenem] as the compound, how does the “activity against MRSA strains” value [1] read?
Answer: The value was “active against a few MRSA strains”.

Question: With “(7R)-7-[(Phenylacetyl)amino]-3-(2,3-dihydro-2,2-dimethylbenzofuran-7-yl)-3-cephem-4-carboxylic acid [Cmpd 55]” as the compound, how does the MIC [2] read?
Answer: Its MIC is 8 µg/mL.

Question: What about the MIC [3] of the same compound?
Answer: The MIC was 4 µg/mL.

Question: And the MIC [4]?
Answer: Its MIC is 16 µg/mL.

Question: What about the MIC [5] of the same compound?
Answer: The MIC was greater than 32 µg/mL.

Question: What about the MIC [6] of the same compound?
Answer: The MIC was less than 0.25 µg/mL.

Question: What about the MIC [7] of the same compound?
Answer: Its MIC is 16 µg/mL.

Question: And the MIC [8]?
Answer: The MIC was greater than 32 µg/mL.

Question: What about the MIC [9] of the same compound?
Answer: The MIC was 16 µg/mL.

Question: What about the MIC [10] of the same compound?
Answer: The MIC was less than 0.25 µg/mL.

Question: And the MIC [11]?
Answer: The MIC was less than 0.25 µg/mL.

Question: Which MIC ([3]; Staphylococcus aureus, read-out: MIC) does the source give for `N=C(N)NCCSCC(=O)N[C@@H]1C(=O)N2C(C(=O)O)=C(Sc3ccccc3CSC(=N)N)CS[C@H]12` [Cmpd 137, (7R)-7-[((2-guanidinoethylthio)acetyl)amino]-3-(2-isothiouroniummethylphenylthio)-3-cephem-4-carboxylate, trifluoroacetic acid salt] here?
Answer: The MIC was 2 µg/mL.

Question: And the MIC [12]?
Answer: Its MIC is 0.125 µg/mL.

Question: What about the Mortality ([13]; dose 0.0391 mg/kg) of the same compound?
Answer: The Mortality was 8/10.

Question: And the Mortality ([13]; dose 0.0781 mg/kg)?
Answer: The Mortality was 9/10.

Question: What about the Mortality ([13]; dose 0.1562 mg/kg, trifluoroacetic acid salt) of the same compound?
Answer: Its Mortality is 7/10 and 9/10.

Question: What about the Mortality ([13]; dose 0.3125 mg/kg, trifluoroacetic acid salt) of the same compound?
Answer: Its Mortality is 5/10 and 8/10.

Question: What about the Mortality ([13]; dose 0.625 mg/kg, trifluoroacetic acid salt) of the same compound?
Answer: The Mortality was 6/10 and 1/10.

Question: What about the Mortality ([13]; dose 1.25 mg/kg) of the same compound?
Answer: The Mortality was 0/10.

Question: What about the Mortality ([13]; dose 2.5 mg/kg) of the same compound?
Answer: Its Mortality is 0/10.

Question: And the ED50 ([13]; two equal doses, S. aureus ATCC 13709 IP challenge, trifluoroacetic acid salt, 4320 min)?
Answer: The ED50 was 0.38 mg/kg.

Source: patent US5698547A, “Cephalosporin antibiotics” (Microcide Pharmaceuticals, Inc., priority 1995, dated 1997)
